Reference: US5270204A, “Covalent angiogenin/RNase hybrids” (The President and Fellows of Harvard College, priority 1992, dated 1993)

T1: bovine pancreatic RNase A (Bos taurus, UniProt P61823)
T1 sequence (P61823 27-150): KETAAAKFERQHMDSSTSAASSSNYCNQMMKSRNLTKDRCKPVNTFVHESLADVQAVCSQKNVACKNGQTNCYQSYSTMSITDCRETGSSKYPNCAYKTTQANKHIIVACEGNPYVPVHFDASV

B1: ARH-III, angiogenin/RNase hybrid: human angiogenin with residues 8-22 replaced by residues 7-21 of bovine pancreatic RNase A (Homo sapiens) (protein)
chain: QDNSRYTKFERQHMDSSTSAASDRYCESIMRRRGLTSPCKDINTFIHGNKRSIKAICENKNGNPHRENLRISKSSFQVTTCKLHGGSPWPPCQYRATAGFRNVVVACENGLPVHLDQSIFRRP
notes: the coding region for Met-(-1) through Asn-3; fragment C consisted of the coding region from Arg-24 through Pro-123; made in house; host or cells: E. coli W3110 (plasmid pARH-III)

Legend:
[1] = target: human angiogenin, wild type (Homo sapiens, UniProt P03950); settings: 30 mM Mes, 30 mM NaCl, pH 6.0 at 37° C.; cited from earlier work
[2] = target: T1, bovine pancreatic RNase A; settings: spectrophotometric assay, 30 mM Mes, 30 mM NaCl, pH 6.0 at 25° C.; cited from earlier work
[3] = substrate: Nc1ccn([C@@H]2O[C@H](CO)[C@@H](OP(=O)(O)OC[C@H]3O[C@@H](n4cnc5c(=O)[nH]c(N)nc54)[C@H](O)[C@@H]3O)[C@H]2O)c(=O)n1; experiment: Activity toward dinucleotide (3',5') phosphates, HPLC quantitation method; assay type: biochemical, human; settings: other: ARH-III, 30 mM Mes, 30 mM NaCl, pH 6.0 at 37° C., 0.1 mM substrate, 2.8 μM ARH-III
Procedure: (§1) Activity toward dinucleotide (3', 5') phosphates was determined by an HPLC quantitation method as described by Shapiro et al., 1988, Anal. Biochem. 175: 450-461; Harper and Vallee, 1989, Biochemistry 28: 1875-1884. Reaction mixtures (30 μL) contained 0.1 mM substrate, 2.8 μM ARH-III and were incubated for 4-24 hours at 37° C.
(§2) The enzymatic activities of ARH-III toward tRNA, 18S and 28S rRNA, and dinucleotide substrates were very similar to those of angiogenin. […] Angiogenin and RNase A (obtained from Cooper Biochemicals) had maximal activities under these assay conditions at pH ~6.8 and ~8.1, respectively, consistent with previous results obtained by Lee & Vallee, 1989b, Biochem. and Biophys. Res. Commun. 161: 121-126. It is known that angiogenin catalyzes the cleavage of dinucleotide substrates, but at rates 5-6 orders of magnitude lower than those observed for RNase A (Shapiro et al., 1988, Anal. Biochem. 175: 450-461; Harper & Vallee, 1989, Biochemistry 28: 1875-1884). Its specificity is different from that of RNase A based on kcat /Km values for 4 different dinucleotides. In all cases, kcat /Km values were within 30% of those observed for angiogenin, and the relative specificity for the substrates was unchanged.
(§3) ^a Assays with ARHIII and angiogenin were performed in 30 mM Mes, 30
(§4) mM NaCl, pH 6.0 at 37° C.

[4] = substrate: Nc1ccn([C@@H]2O[C@H](CO)[C@@H](OP(=O)(O)OC[C@H]3O[C@@H](n4cnc5c(N)ncnc54)[C@H](O)[C@@H]3O)[C@H]2O)c(=O)n1; experiment: as above; assay type: biochemical, human; settings: other: ARH-III, 30 mM Mes, 30 mM NaCl, pH 6.0 at 37° C., 0.1 mM substrate, 2.8 μM ARH-III
Procedure: as §1, §2, §3, §4

[5] = substrate: Nc1nc2c(ncn2[C@@H]2O[C@H](COP(=O)(O)O[C@H]3[C@@H](O)[C@H](n4ccc(=O)[nH]c4=O)O[C@@H]3CO)[C@@H](O)[C@H]2O)c(=O)[nH]1; experiment: as above; assay type: biochemical, human; settings: other: ARH-III, 30 mM Mes, 30 mM NaCl, pH 6.0 at 37° C., 0.1 mM substrate, 2.8 μM ARH-III
Procedure: as §1, §2, §3, §4

[6] = substrate: Nc1ncnc2c1ncn2[C@@H]1O[C@H](COP(=O)(O)O[C@H]2[C@@H](O)[C@H](n3ccc(=O)[nH]c3=O)O[C@@H]2CO)[C@@H](O)[C@H]1O; experiment: as above; assay type: biochemical, human; settings: other: ARH-III, 30 mM Mes, 30 mM NaCl, pH 6.0 at 37° C., 0.1 mM substrate, 2.8 μM ARH-III
Procedure: as §1, §2, §3, §4

Sequence of human angiogenin, wild type (P03950 25-147): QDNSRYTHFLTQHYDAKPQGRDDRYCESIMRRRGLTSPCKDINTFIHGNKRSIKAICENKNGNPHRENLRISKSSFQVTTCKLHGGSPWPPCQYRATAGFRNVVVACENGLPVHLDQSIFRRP

Row | Molecule | kcat/Km [1] [M⁻¹ s⁻¹] | kcat/Km [2] [M⁻¹ s⁻¹] | kcat/Km [3] [M⁻¹ s⁻¹] | kcat/Km [4] [M⁻¹ s⁻¹] | kcat/Km [5] [M⁻¹ s⁻¹] | kcat/Km [6] [M⁻¹ s⁻¹]
1 | Nc1ccn([C@@H]2O[C@H](CO)[C@@H](OP(=O)(O)OC[C@H]3O[C@@H](n4cnc5c(N)ncnc54)[C@H](O)[C@@H]3O)[C@H]2O)c(=O)n1 [CpA, cytidylyl-(3'-5') adenosine] | 12 | 6e+06 | – | – | – | –
2 | Nc1ccn([C@@H]2O[C@H](CO)[C@@H](OP(=O)(O)OC[C@H]3O[C@@H](n4cnc5c(=O)[nH]c(N)nc54)[C@H](O)[C@@H]3O)[C@H]2O)c(=O)n1 [CpG, cytidylyl-(3'-5') guanosine] | 4.0 | 510000 | – | – | – | –
3 | Nc1ncnc2c1ncn2[C@@H]1O[C@H](COP(=O)(O)O[C@H]2[C@@H](O)[C@H](n3ccc(=O)[nH]c3=O)O[C@@H]2CO)[C@@H](O)[C@H]1O [UpA, uridylyl-(3'-5') adenosine] | 1.1 | 4e+06 | – | – | – | –
4 | Nc1nc2c(ncn2[C@@H]2O[C@H](COP(=O)(O)O[C@H]3[C@@H](O)[C@H](n4ccc(=O)[nH]c4=O)O[C@@H]3CO)[C@@H](O)[C@H]2O)c(=O)[nH]1 [UpG, uridylyl-(3'-5') guanosine] | 0.4 | 180000 | – | – | – | –
5 | B1 | – | – | 3.4 | 13 | 0.4 | 0.8
